The test system of experiment [1] is BH4 levels in SK-N-BE (2) cells. As to the kind of experiment: SKN-N-BE (2) cellular assay, BH4 levels by LC-MS. To be noted: Homo sapiens, SKNBE2, read-out: SK-N-BE(2) IC50, SK-N-BE (2) cells, BH4 levels by LC-MS. The class given is cell-based.
For experiment [2], the target named is SNAP-hSPR (sepiapterin reductase, SPR) (Homo sapiens, UniProt P35270). As to the kind of experiment: biochemical. The format is binding. To be noted: terbium labelled SNAP-hSPR / SSZ labelled SNAP-EGFP; read-out: hTR-FRET IC50.
Chain of SNAP-hSPR (sepiapterin reductase, SPR) (P35270 whole entry): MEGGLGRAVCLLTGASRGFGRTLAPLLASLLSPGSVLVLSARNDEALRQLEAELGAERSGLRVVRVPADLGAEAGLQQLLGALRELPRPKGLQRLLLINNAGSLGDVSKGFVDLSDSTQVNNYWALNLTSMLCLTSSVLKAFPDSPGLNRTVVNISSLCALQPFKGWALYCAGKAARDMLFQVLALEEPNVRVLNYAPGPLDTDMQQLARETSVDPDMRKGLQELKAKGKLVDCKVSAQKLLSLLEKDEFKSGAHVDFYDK

Structures are written as SMILES. pIC50: −log10 of the molar value.

Regarding `Cc1cc(-n2cc(C(=O)N3CCC(C(F)(F)F)CC3)c(C)n2)[nH]c(=O)c1` [Q-0440, 4-methyl-6-{3-methyl-4-[4-(trifluoromethyL)piperidine-1-carbonyl]-1H-pyrazol-1-yl}-1,2-dihydropyridin-2-one], the pIC50 in experiment [1] was 5.85; in experiment [2], 8.05.
Take `CCC1(C#N)CCN(C(=O)c2cnn(-c3nc4c(c(=O)[nH]3)CCC4)c2)CC1` [Q-0725]: the pIC50 is 7.00 in experiment [1] and 9.00 in experiment [2].
Consider `Cc1c(C(=O)N2CC[C@H]3CCCC[C@@H]3C2)cnn1-c1nc2ccsc2c(=O)[nH]1` [Q-0408], for which the pIC50 in experiment [1] is 7.12; in experiment [2], 8.00.
On to `CCC1(C#N)CCN(C(=O)c2cn(-c3nn4cccc4c(=O)[nH]3)nn2)CC1` [Q-0775], for which the figures for the pIC50 in experiment [1] and in experiment [2] were 6.00 and 8.70, respectively.
In the same order, the values of `Cc1c(C(=O)N2CCN(c3ccccc3)CC2)cnn1-c1nc2c(c(=O)[nH]1)CCC2` [Q-0545] are 7.39 and 8.70.
`COC1(C)CCN(C(=O)c2cnn(-c3nc4c(c(=O)[nH]3)CCC4)c2C)CC1` [Q-0520]: the pIC50 in experiment [1] is 6.70; in experiment [2] it was 8.52.
As to `Cc1c(C(=O)N2CC3CC2C3)cnn1-c1nn2cccc2c(=O)[nH]1` [Q-0791], the pIC50 is 6.22 in experiment [1] and 8.70 in experiment [2].
For the compound `O=C(c1ccnc(-c2nc3ccsc3c(=O)[nH]2)c1)N1CCC(c2nc3ccccc3s2)CC1` [Q-0548], the pIC50 in experiment [1] is 5.68; in experiment [2], 7.70.
Take `O=C(c1cnn(-c2nc3c(c(=O)[nH]2)CCC3)c1)N1CCN2CCC[C@@H]2C1` [Q-0743]: the pIC50 in experiment [1] was 6.40; in experiment [2], 8.40.
Regarding `Cc1c(C(=O)N2CCN(c3ccc(Cl)cc3)CC2)cnn1-c1nn2cccc2c(=O)[nH]1` [Q-0827], the results for the pIC50 in experiment [1] and in experiment [2] were 7.19 and 8.70, respectively.
As for `Cc1c(C(=O)N2CC3CC(F)(F)CC3C2)cnn1-c1nn2cccc2c(=O)[nH]1` (centres unmarked) [Q-0796], the results for the pIC50 in experiment [1] and in experiment [2] were 6.70 and 9.00, respectively.
`Cc1c(C(=O)N2CCN(C(=O)C34CC(C(=O)O)(C3)C4)CC2)cnn1-c1nc2c(c(=O)[nH]1)CCC2` [Q-0627, 3-(4-(5-methyl-1-(4-oxo-4,5,6,7-tetrahydro-3H-cyclopenta[d]pyrimidin-2-yl)-1H-pyrazole-4-carbonyl)piperazine-1-carbonyl)bicyclo[1.1.1]pentane-1-carboxylic acid]: the pIC50 in experiment [1] is 5.00; in experiment [2], 8.05.
In the same order, the values of `Cc1c(C(=O)N2CCCCC2)cnn1-c1nn2cccc2c(=O)[nH]1` [Q-0634] are 6.15 and 8.52.
With `CCC(C#N)(CC)C1CCN(C(=O)c2cnn(-c3nc4c(c(=O)[nH]3)CCC4)c2C)CC1` [Q-0626], the results for the pIC50 in experiment [1] and in experiment [2] were 7.85 and 9.00, respectively.
In the case of `Cc1cc(=O)[nH]c(-n2ncc(C(=O)NCC3(c4ccccc4)CCCC3)c2C)n1` [Q-0385], the pIC50 was 5.42 in experiment [1] and 7.52 in experiment [2].
`Cc1c(C(=O)Nc2ccccc2N2CCOCC2)cnn1-c1nc2c(c(=O)[nH]1)CCC2` [Q-0532]: the pIC50 in experiment [1] is 7.36; in experiment [2] it was 7.70.
On the same counts, the results for `Cc1c(C(=O)N2CCN(c3ccc(C#N)cc3)CC2)cnn1-c1nn2cccc2c(=O)[nH]1` [Q-0829] are 7.10 and 9.00.
As for `Cc1c(C(=O)N2CCC(c3nc4ccc(F)cc4s3)CC2)cnn1-c1nc2c(c(=O)[nH]1)CCC2` [Q-0590], the pIC50 was 7.82 in experiment [1] and 8.52 in experiment [2].
`Cc1c(C(=O)N2CCC3(CC2)CC3)cnn1-c1nn2cccc2c(=O)[nH]1` [Q-0681]: the results for the pIC50 in experiment [1] and in experiment [2] were 6.70 and 9.00, respectively.
As to `Cc1cc(=O)[nH]c(-n2ncc(C(=O)N3CCc4ccccc4C3C)c2C)n1` (centres unmarked) [Q-0313], the figures for the pIC50 in experiment [1] and in experiment [2] were 5.82 and 8.22, respectively.
With `Cc1cc(=O)[nH]c(-n2ncc(C(=O)N3CCc4ccccc4C3)c2CC(C)C)n1` [Q-0353], the pIC50 was 4.82 in experiment [1] and 7.30 in experiment [2].
In the same order, the values of `O=C(c1cnn(-c2nc3c(c(=O)[nH]2)CCC3)c1)N1CCC(c2c[nH]c3ccccc23)CC1` [Q-0702] are 7.49 and 8.70.
On to `COC1CCCN(C(=O)c2cnn(-c3nc4c(c(=O)[nH]3)CCC4)c2C)C1` (centres unmarked) [Q-0482], for which the figures for the pIC50 in experiment [1] and in experiment [2] were 6.00 and 8.10, respectively.
Consider `O=C(c1cnn(-c2nc3c(c(=O)[nH]2)CCC3)c1C1CC1)N1CCC(c2nc3ccccc3s2)CC1` [Q-0546], for which the figures for the pIC50 in experiment [1] and in experiment [2] were 7.08 and 8.05, respectively.
With `N#CC1(c2ccccc2)CCN(C(=O)c2cnn(-c3nc4ccsc4c(=O)[nH]3)c2)CC1` [Q-0523], the results for the pIC50 in experiment [1] and in experiment [2] were 7.00 and 7.70, respectively.
As to `O=C(O)c1ccnc(-c2nc3sccc3c(=O)[nH]2)c1` [Q-0566], the negative-log IC50 (pIC50) in experiment [1] is 5.00; in experiment [2] it was 5.30.
Turning to `Cc1c(C(=O)N2CC3COCC(C3)C2)cnn1-c1nc2ccsc2c(=O)[nH]1` [Q-0602], the pIC50 is 5.92 in experiment [1] and 7.70 in experiment [2].
In the same order, the values of `Cc1c(C(=O)N2CCC3(CCCN3Cc3ccccc3)C2)cnn1-c1nc2c(c(=O)[nH]1)CCC2` (centres unmarked) [Q-0551] are 6.30 and 8.22.
In the same order, the values of `Cc1c(C(=O)N2CC3CC3(O)C2)cnn1-c1nc2sccc2c(=O)[nH]1` (centres unmarked) [Q-0617] are 5.52 and 7.70.
Regarding `Cc1c(C(=O)N2CCC3(CCCC3)CC2)cnn1-c1nc2ccsc2c(=O)[nH]1` [Q-0398], the values for the pIC50 in experiment [1] and in experiment [2] were 7.14 and 8.00, respectively.
Regarding `Cc1c(C(=O)N2CCC(O)(C(F)(F)F)CC2)cnn1-c1nn2cccc2c(=O)[nH]1` [Q-0803], the pIC50 is 6.70 in experiment [1] and 9.00 in experiment [2].
In the case of `Cc1cc(=O)[nH]c(-n2ncc(C(=O)N3CCOCC3)c2C)n1` [Q-0352], the pIC50 in experiment [1] was 4.89; in experiment [2], 7.70.
With `Cc1cc(=O)[nH]c(-n2ccc(C(=O)N3CCOCC3)n2)n1` [Q-0343], the pIC50 in experiment [1] was 4.40; in experiment [2], 7.00.
With `Cc1nc(-n2ncc(C(=O)N3CCC(C(F)(F)F)CC3)c2C)[nH]c(=O)c1Cl` [Q-0421], the pIC50 was 6.15 in experiment [1] and 8.52 in experiment [2].
On the same counts, the results for `CN[C@@H]1CCN(C(=O)c2cnn(-c3nc4ccsc4c(=O)[nH]3)c2C)C1` [Q-0584] are 5.00 and 6.70.
Consider `Cc1c(C(=O)N2C[C@@H]3CN(C(=O)OC(C)(C)C)C[C@@H]32)cnn1-c1nn2cccc2c(=O)[nH]1` [Q-0857], for which the values for the pIC50 in experiment [1] and in experiment [2] were 6.10 and 8.52, respectively.
In the same order, the values of `Cc1c(C(=O)N2CCC(C(C)(C)C#N)CC2)cnn1-c1nc2ccsc2c(=O)[nH]1` [Q-0531] are 7.21 and 8.40.
Turning to `Cc1c(C(=O)N2CCCC(C(F)(F)F)C2)cnn1-c1nc2c(c(=O)[nH]1)CCC2` (centres unmarked) [Q-0450], the pIC50 in experiment [1] was 6.52; in experiment [2] it was 8.30.
As to `O=C(c1cnn(-c2nn3cccc3c(=O)[nH]2)c1)N1CCC(C2CC2)CC1` [Q-0709], the values for the pIC50 in experiment [1] and in experiment [2] were 7.55 and 9.00, respectively.
As for `Cc1c(C(=O)N2CCC(C(F)(F)F)CC2)cnn1-c1nc2sccc2c(=O)[nH]1` [Q-0410], the pIC50 in experiment [1] was 6.70; in experiment [2] it was 8.70.
Consider `Cc1c(C(=O)N2CCC3(CCNC3=O)CC2)cnn1-c1nn2cccc2c(=O)[nH]1` [Q-0848], for which the pIC50 in experiment [1] was 5.00; in experiment [2] it was 8.70.
For the compound `Cc1c(C(=O)N2CCC(c3ccccc3)CC2)cnn1-c1nc2[nH]ccc2c(=O)[nH]1` [Q-0488], the values for the pIC50 in experiment [1] and in experiment [2] were 5.92 and 7.70, respectively.
Turning to `Cc1c(C(=O)N2CCN(c3cnccn3)CC2)cnn1-c1nn2cccc2c(=O)[nH]1` [Q-0831], the pIC50 in experiment [1] was 6.40; in experiment [2], 8.70.
In the same order, the values of `O=C(c1cnn(-c2nc3c(c(=O)[nH]2)CCC3)c1)N1CCC2(CC1)CC2` [Q-0705] are 7.37 and 8.70.
Turning to `Cc1c(C(=O)N2CCC3(CC2)CC(F)(F)C3)cnn1-c1nc2c(c(=O)[nH]1)CCC2` [Q-0691], the pIC50 in experiment [1] is 7.04; in experiment [2] it was 8.70.
`Cc1c(C(=O)N2CCC(CC(F)(F)F)CC2)cnn1-c1nc2sccc2c(=O)[nH]1` [Q-0724]: the negative-log IC50 (pIC50) in experiment [1] is 6.70; in experiment [2] it was 8.70.
Regarding `CCN1CCN(C(=O)c2cnn(-c3nc(C)c(C)c(=O)[nH]3)c2C)CC1` [Q-0282], the pIC50 in experiment [1] is 5.36; in experiment [2], 7.52.
`Cc1cc(=O)[nH]c(-n2ncc(C(=O)N(C)C3CCCc4ccccc43)c2C)n1` (centres unmarked) [Q-0373]: the results for the pIC50 in experiment [1] and in experiment [2] were 5.82 and 7.70, respectively.
In the case of `Cc1cc(=O)[nH]c(-n2ncc(C(=O)N3CCc4cccnc4C3)c2C)n1` [Q-0300], the pIC50 in experiment [1] is 5.30; in experiment [2] it was 8.05.
Take `Cc1c(C(=O)N2c3ccccc3C[C@@H]2C)cnn1-c1nc2ccsc2c(=O)[nH]1` (single isomer, unassigned) [Q-0415]: the pIC50 was 5.92 in experiment [1] and 7.52 in experiment [2].
On the same counts, the results for `Cc1cc(=O)[nH]c(-n2ccc(C(=O)N3c4ccccc4CC3C)n2)n1` (centres unmarked) [Q-0377] are 5.20 and 7.40.
On the same counts, the results for `Cc1c(C(=O)N2CC(C)(C)OC(C)(C)C2)cnn1-c1nc2ccsc2c(=O)[nH]1` [Q-0405] are 5.82 and 8.00.
As to `Cc1c(C(=O)N2CCC(C(F)(F)F)CC2)cnn1-c1nc2c(c(=O)[nH]1)CC2` [Q-0765], the pIC50 in experiment [1] is 6.52; in experiment [2], 8.30.
In the same order, the values of `Cc1c(C(=O)N2CC3(CCN(C(=O)OC(C)(C)C)C3)C2)cnn1-c1nn2cccc2c(=O)[nH]1` [Q-0762] are 6.70 and 8.70.
With `Cc1c(C(=O)N2CCN(c3cccc(C(F)(F)F)c3)CC2)cnn1-c1nn2cccc2c(=O)[nH]1` [Q-0840], the values for the pIC50 in experiment [1] and in experiment [2] were 6.70 and 8.52, respectively.

The term pIC50 denotes the IC50 on a negative log10 scale, so that one unit is a factor of ten.

The values are drawn from US9963462B2 (priority 2015, dated 2018).
